{"source": "patent EP2266530A1", "about": "“Oxazolidinones for cosmetic cutaneous use” (Laboratoires Expanscience, priority 2002, dated 2004)", "key": {"[1]": {"system": "cellules de Langerhans", "test": "Migration of freshly isolated, DNSB-sensitised Langerhans cells through Matrigel in a two-compartment culture chamber", "conditions": "for inhibition de la migration des CL induite par le DNSB (result in words): compound 1 µM", "quoted_text": "Des suspensions de cellules épidermiques ont été obtenues par traitement enzymatique (0,05% trypsine, pendant 18h à +4°C) de fragments de peau humaine normale issus de chirurgie plastique. Les suspensions obtenues contiennent en moyenne 2 à 4% de CL. L'obtention de suspensions contenant en moyenne 70% de CL est basée sur le principe de la centrifugation sur gradient de densité (Lymphoprep™) et élimination des kératinocytes.\nLe milieu de base choisi pour l'ensemble de l'étude a été le RPMI 1640 (Gibco BRL, France).\nOn a utilisé comme agent sensibilisateur le DNSB (Sigma Aldrich), forme soluble du DNCB (dinitro-chloro-benzène), solubilisé en RPMI-BSA et utilisé à la concentration de 50 µM.\nUn système de chambre de culture à deux compartiments (Falcon, Becton Dickinson, France) a été utilisé. Le compartiment supérieur est séparé du compartiment inférieur par une membrane de porosité 8 µm, sur laquelle sont déposées 50 µg/cm^2 de Matrigel. La membrane est alors recouverte de protéines formant un film équivalent à une membrane basale (laminine, collagène IV, nidogène, entactine, héparane sulfate protéoglycanes). Les cellules reprises dans le milieu RPMI-BSA seul ou en présence des différents produits sont déposées dans le compartiment supérieur. Dans le compartiment inférieur, est ajouté du surnageant de culture de fibroblastes humains normaux. Après 18h d'incubation à 37°C, le nombre de cellules vivantes ayant traversé le Matrigel et se trouvant dans le compartiment inférieur est compté sous microscope (les CL sont facilement identifiables par leur forme dendritique). Chaque essai est réalisé en triplicate.\nDans l'expression des résultats, la capacité migratoire des CL contrôle (non traitées et non sensibilisées) est arbitrairement fixée à 1."}, "[2]": {"system": "cellules dendritiques", "test": "FITC-induced migration of dendritic cells from ear skin to draining lymph nodes in mice (flow cytometry)", "assay_type": "in vivo, souris", "description": "Le FITC (Fluorescéine isothiocyanate, Sigma, St. Louis, MO) a été dilué extemporanément dans un mélange acétone : dibutylphthalate (1:1).\nL'oxazolidinone B et le LU105 (LU 105 est un inhibiteur de MMPs, correspondant à un extrait peptidique de lupin blanc commercialisé par la Société Expanscience sous le nom de marque Actimp 193®) ont été fournis par les \"Laboratoires Expanscience\", et formulés seuls ou en association dans un véhicule inerte compatible avec une application topique, tel que décrit à l'exemple 1 ci-dessus [oxazolidinone B (0,5%) ± LU105 (2%)]. Les différentes formulations ont été appliquées sur les oreilles de souris deux fois par jour pendant 4 jours consécutifs. Trois heures après la dernière application, 1,5% de FITC sont appliqués sur les deux oreilles (l'une traitée et l'autre non traitée (Contrôle)).\nL'effet des deux molécules a été évalué in vivo chez la souris. La peau des deux oreilles est badigeonnée avec 1,5% FITC (2X5 µl). 24 h après, les souris sont sacrifiées et une suspension cellulaire est préparée à partir des ganglions auriculaires et cervicaux (ganglions drainants, ci-après dénommés GL) ou à partir des ganglions popliteaux (ganglions non drainants, contrôle négatif). Les tissus ont été découpés et les cellules sont séparées par filtration (filtre […], Falcon; Becton Dickinson), puis lavés. […]"}}, "data": [{"compound": "O=[N+]([O-])c1ccc(S(=O)(=O)O)c([N+](=O)[O-])c1", "note": "[DNSB, reference compound]", "values": [{"measurement": "stimulation de la migration des CL par rapport aux cellules contrôle", "setting": "[1]; Example 3, DNSB 50 µM alone", "result": "+113%"}, {"measurement": "Index de migration", "setting": "[1]; Example 4, cells sensitised with DNSB alone, control cells = 1", "result": "1,78"}]}, {"compound": "CCCCCCCCCCCCC1COC(=O)N1", "note": "(centres unmarked) [oxazolidinone A, 4-dodécyl-oxazolidin-2-one]", "values": [{"measurement": "inhibition de la migration des CL induite par le DNSB (result in words)", "setting": "[1]; Example 3", "result": "inhibent de manière significative"}]}, {"compound": "CCCCCCCCCCCCC1NC(=O)OC1CCCCCCCCCCCC", "note": "(centres unmarked) [oxazolidinone B, 4,5-didodécyl-oxazolidin-2-one]", "values": [{"measurement": "Inhibition de la migration en %", "setting": "[2]; 0,5% topical on mouse ears, twice daily for 4 days, FITC 1,5%, read 24 h later", "result": 28, "unit": "%"}, {"measurement": "inhibition de la migration des CD vers les GL (result in words)", "setting": "[2]; mice sensitised with FITC, oxazolidinone B alone", "result": "inhibe de manière significative"}, {"measurement": "inhibition de la migration des CL induite par le DNSB (result in words)", "setting": "[1]; Example 3", "result": "inhibent de manière significative"}, {"measurement": "inhibition de la migration des CL sensibilisées (result in words)", "setting": "[1]; Example 4, tested separately", "result": "inhibent de manière significative"}]}, {"compound": "CCCCCCCCCCCCC1COC(=O)N1CCCCCCCCCCCC", "note": "(centres unmarked) [oxazolidinone C, 3,4-didodécyl-oxazolidin-2-one]", "values": [{"measurement": "inhibition de la migration des CL induite par le DNSB (result in words)", "setting": "[1]; Example 3", "result": "inhibent de manière significative"}]}]}
